Test system: 233499-124-R-J3-PDC spheroids with HUVEC/MSC, viability
Test: Anticancer human tumor 233499-124-R-J3-PDC patient-derived colon adenocarcinoma cell line growth inhibition [PI3K]
Conditions: for IC50: curve of first compound; for viability, T/C: stronger effect = lower value
Procedure, shortened: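 Targeted small molecules plus PI3K inhibitors, half-log dose series from Cmax (default top 10 microM), were applied to heterotypic spheroids of cancer cells with HUVEC and MSCs. Viability indicated growth inhibition.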

[1] = second compound 0.00316 µM, first compound 0.0316 µM
[2] = second compound 0.00316 µM, first compound 0.1 µM
[3] = second compound 0.00316 µM, first compound 0.316 µM
[4] = second compound 0.00316 µM, first compound 1 µM
[5] = second compound 0.00316 µM, first compound 3.16 µM
[6] = second compound 0.00316 µM, first compound 10 µM
[7] = second compound 0.01 µM, first compound 0.0316 µM
[8] = second compound 0.01 µM, first compound 0.1 µM
[9] = second compound 0.01 µM, first compound 0.316 µM
[10] = second compound 0.01 µM, first compound 1 µM
[11] = second compound 0.01 µM, first compound 3.16 µM
[12] = second compound 0.01 µM, first compound 10 µM
[13] = second compound 0.0316 µM, first compound 0.0316 µM
[14] = second compound 0.0316 µM, first compound 0.1 µM
[15] = second compound 0.0316 µM, first compound 0.316 µM
[16] = second compound 0.0316 µM, first compound 1 µM
[17] = second compound 0.0316 µM, first compound 3.16 µM
[18] = second compound 0.0316 µM, first compound 10 µM
[19] = second compound 0.1 µM, first compound 0.0316 µM
[20] = second compound 0.1 µM, first compound 0.1 µM
[21] = second compound 0.1 µM, first compound 0.316 µM
[22] = second compound 0.1 µM, first compound 1 µM
[23] = second compound 0.1 µM, first compound 3.16 µM
[24] = second compound 0.1 µM, first compound 10 µM
[25] = second compound 0.316 µM, first compound 0.0316 µM
[26] = second compound 0.316 µM, first compound 0.1 µM
[27] = second compound 0.316 µM, first compound 0.316 µM
[28] = second compound 0.316 µM, first compound 1 µM
[29] = second compound 0.316 µM, first compound 3.16 µM
[30] = second compound 0.316 µM, first compound 10 µM
[31] = second compound 1 µM, first compound 0.0316 µM
[32] = second compound 1 µM, first compound 0.1 µM
[33] = second compound 1 µM, first compound 0.316 µM
[34] = second compound 1 µM, first compound 1 µM
[35] = second compound 1 µM, first compound 3.16 µM
[36] = second compound 1 µM, first compound 10 µM
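Also: spheroids exposed to agents for seven days before readout.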
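For viability, T/C in this document: percent viability relative to DMSO vehicle control taken as 100%.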

Question: `C#Cc1c(F)ccc2cc(O)cc(-c3ncc4c(N5CC6CCC(C5)N6)nc(OCC56CCCN5CC(F)C6)nc4c3F)c12` (stereo unspecified) + COc1c(OCCCN2CCOCC2)ccc2c3n(c(=NC(=O)c4cnc(N)nc4)nc12)CCN3 was tested. Which IC50 (second compound 0.00316 µM) did it give?
Answer: The IC50 was > 10000 nM.

Question: What about the IC50 (second compound 0.01 µM) of the same compound?
Answer: The IC50 was > 10000 nM.

Question: And the IC50 (second compound 0.0316 µM)?
Answer: The IC50 was > 10000 nM.

Question: What about the IC50 (second compound 0.1 µM) of the same compound?
Answer: The IC50 was 2230 nM.

Question: And the IC50 (second compound 0.316 µM)?
Answer: Its IC50 is < 31.6 nM.

Question: And the IC50 (second compound 1 µM)?
Answer: Its IC50 is < 31.6 nM.

Question: What about the viability, T/C [1] of the same compound?
Answer: Its viability, T/C is 85.5%.

Question: And the viability, T/C [2]?
Answer: Its viability, T/C is 100%.

Question: What about the viability, T/C [3] of the same compound?
Answer: The viability, T/C was 82.9%.

Question: What about the viability, T/C [4] of the same compound?
Answer: Its viability, T/C is 95.1%.

Question: What about the viability, T/C [5] of the same compound?
Answer: Its viability, T/C is 81%.

Question: What about the viability, T/C [6] of the same compound?
Answer: The viability, T/C was 67.2%.

Question: And the viability, T/C [7]?
Answer: Its viability, T/C is 81.5%.

Question: And the viability, T/C [8]?
Answer: Its viability, T/C is 95.2%.

Question: What about the viability, T/C [9] of the same compound?
Answer: Its viability, T/C is 86.9%.

Question: What about the viability, T/C [10] of the same compound?
Answer: Its viability, T/C is 91.6%.

Question: What about the viability, T/C [11] of the same compound?
Answer: The viability, T/C was 81.2%.

Question: And the viability, T/C [12]?
Answer: The viability, T/C was 80.8%.

Question: What about the viability, T/C [13] of the same compound?
Answer: The viability, T/C was 93.3%.

Question: What about the viability, T/C [14] of the same compound?
Answer: Its viability, T/C is 91.3%.

Question: And the viability, T/C [15]?
Answer: Its viability, T/C is 74.8%.

Question: What about the viability, T/C [16] of the same compound?
Answer: The viability, T/C was 92.7%.

Question: And the viability, T/C [17]?
Answer: The viability, T/C was 71.2%.

Question: What about the viability, T/C [18] of the same compound?
Answer: The viability, T/C was 68.7%.

Question: What about the viability, T/C [19] of the same compound?
Answer: The viability, T/C was 62.6%.

Question: What about the viability, T/C [20] of the same compound?
Answer: The viability, T/C was 86.5%.

Question: What about the viability, T/C [21] of the same compound?
Answer: The viability, T/C was 71.2%.

Question: And the viability, T/C [22]?
Answer: Its viability, T/C is 63.5%.

Question: And the viability, T/C [23]?
Answer: Its viability, T/C is 44.3%.

Question: What about the viability, T/C [24] of the same compound?
Answer: The viability, T/C was 29.7%.

Question: And the viability, T/C [25]?
Answer: Its viability, T/C is 24.9%.

Question: What about the viability, T/C [26] of the same compound?
Answer: Its viability, T/C is 26%.

Question: And the viability, T/C [27]?
Answer: Its viability, T/C is 27.1%.

Question: And the viability, T/C [28]?
Answer: Its viability, T/C is 11.7%.

Question: And the viability, T/C [29]?
Answer: The viability, T/C was 13.3%.

Question: What about the viability, T/C [30] of the same compound?
Answer: The viability, T/C was 4.16%.

Question: And the viability, T/C [31]?
Answer: Its viability, T/C is 4.26%.

Question: And the viability, T/C [32]?
Answer: The viability, T/C was 9.48%.

Question: What about the viability, T/C [33] of the same compound?
Answer: The viability, T/C was 8.52%.

Question: What about the viability, T/C [34] of the same compound?
Answer: The viability, T/C was 3.87%.

Question: What about the viability, T/C [35] of the same compound?
Answer: The viability, T/C was 4.18%.

Question: What about the viability, T/C [36] of the same compound?
Answer: The viability, T/C was 2.6%.

Question: With `CC(Cn1ccc(-c2ccc(C#N)c(Cl)c2)n1)NC(=O)c1cc(C(C)O)[nH]n1` (stereo unspecified) + COc1c(OCCCN2CCOCC2)ccc2c3n(c(=NC(=O)c4cnc(N)nc4)nc12)CCN3 as the compound, how does the IC50 (second compound 0.00316 µM) read?
Answer: Its IC50 is > 10000 nM.

Question: What about the IC50 (second compound 0.01 µM) of the same compound?
Answer: Its IC50 is > 10000 nM.

Question: And the IC50 (second compound 0.0316 µM)?
Answer: Its IC50 is > 10000 nM.

Question: And the IC50 (second compound 0.1 µM)?
Answer: The IC50 was 5040 nM.

Question: What about the IC50 (second compound 0.316 µM) of the same compound?
Answer: Its IC50 is < 31.6 nM.

Question: What about the IC50 (second compound 1 µM) of the same compound?
Answer: The IC50 was < 31.6 nM.

Question: And the viability, T/C [1]?
Answer: The viability, T/C was 92.3%.

Question: What about the viability, T/C [2] of the same compound?
Answer: Its viability, T/C is 107%.

Question: What about the viability, T/C [3] of the same compound?
Answer: Its viability, T/C is 102%.

Question: And the viability, T/C [4]?
Answer: Its viability, T/C is 102%.

Question: And the viability, T/C [5]?
Answer: The viability, T/C was 101%.

Question: And the viability, T/C [6]?
Answer: The viability, T/C was 96.8%.

Question: What about the viability, T/C [7] of the same compound?
Answer: Its viability, T/C is 91.7%.

Question: What about the viability, T/C [8] of the same compound?
Answer: The viability, T/C was 98.2%.

Question: And the viability, T/C [9]?
Answer: The viability, T/C was 73.9%.

Question: And the viability, T/C [10]?
Answer: The viability, T/C was 102%.

Question: And the viability, T/C [11]?
Answer: The viability, T/C was 98%.

Question: And the viability, T/C [12]?
Answer: The viability, T/C was 86.5%.

Question: What about the viability, T/C [13] of the same compound?
Answer: The viability, T/C was 86.6%.

Question: And the viability, T/C [14]?
Answer: Its viability, T/C is 98.5%.

Question: And the viability, T/C [15]?
Answer: Its viability, T/C is 100%.

Question: And the viability, T/C [16]?
Answer: The viability, T/C was 95.3%.

Question: And the viability, T/C [17]?
Answer: The viability, T/C was 77.1%.

Question: What about the viability, T/C [18] of the same compound?
Answer: Its viability, T/C is 95.3%.

Question: What about the viability, T/C [19] of the same compound?
Answer: The viability, T/C was 83.7%.

Question: And the viability, T/C [20]?
Answer: The viability, T/C was 74.1%.

Question: And the viability, T/C [21]?
Answer: The viability, T/C was 70.4%.

Question: What about the viability, T/C [22] of the same compound?
Answer: The viability, T/C was 79%.

Question: And the viability, T/C [23]?
Answer: Its viability, T/C is 55.1%.

Question: What about the viability, T/C [24] of the same compound?
Answer: The viability, T/C was 42.4%.

Question: And the viability, T/C [25]?
Answer: Its viability, T/C is 30.9%.

Question: And the viability, T/C [26]?
Answer: Its viability, T/C is 35.2%.

Question: And the viability, T/C [27]?
Answer: The viability, T/C was 32.5%.

Question: And the viability, T/C [28]?
Answer: Its viability, T/C is 28.4%.

Question: And the viability, T/C [29]?
Answer: The viability, T/C was 23.6%.

Question: What about the viability, T/C [30] of the same compound?
Answer: Its viability, T/C is 27%.

Question: What about the viability, T/C [31] of the same compound?
Answer: Its viability, T/C is 14.8%.

Question: And the viability, T/C [32]?
Answer: Its viability, T/C is 12.6%.

Question: What about the viability, T/C [33] of the same compound?
Answer: The viability, T/C was 7.23%.

Question: And the viability, T/C [34]?
Answer: Its viability, T/C is 8.58%.

Question: What about the viability, T/C [35] of the same compound?
Answer: Its viability, T/C is 5.75%.

Question: And the viability, T/C [36]?
Answer: The viability, T/C was 5.05%.

Question: Which results are given for `CC1(C)CCC(Nc2ncc(C(F)(F)F)c(-c3c[nH]c4c(P(C)(C)=O)c(C#N)ccc34)n2)CN1` (stereo unspecified) + COc1c(OCCCN2CCOCC2)ccc2c3n(c(=NC(=O)c4cnc(N)nc4)nc12)CCN3?
Answer: IC50 (second compound 0.00316 µM): 287 nM; IC50 (second compound 0.01 µM): 205 nM; IC50 (second compound 0.0316 µM): 56.7 nM; IC50 (second compound 0.1 µM): 102 nM; IC50 (second compound 0.316 µM): < 31.6 nM; IC50 (second compound 1 µM): < 31.6 nM; viability, T/C [1]: 64.2%; viability, T/C [2]: 73.2%; viability, T/C [3]: 42%; viability, T/C [4]: 29.5%; viability, T/C [5]: 29.5%; viability, T/C [6]: 5.37%; viability, T/C [7]: 56.5%; viability, T/C [8]: 67.6%; viability, T/C [9]: 42.7%; viability, T/C [10]: 15.7%; viability, T/C [11]: 25.4%; viability, T/C [12]: 5.25%; viability, T/C [13]: 58.4%; viability, T/C [14]: 43.3%; viability, T/C [15]: 29.8%; viability, T/C [16]: 29.7%; viability, T/C [17]: 37.7%; viability, T/C [18]: 2.18%; viability, T/C [19]: 58.3%; viability, T/C [20]: 53.9%; viability, T/C [21]: 37.2%; viability, T/C [22]: 26.1%; viability, T/C [23]: 23.7%; viability, T/C [24]: 2.55%; viability, T/C [25]: 33.5%; viability, T/C [26]: 29.4%; viability, T/C [27]: 24.3%; viability, T/C [28]: 14.7%; viability, T/C [29]: 16.3%; viability, T/C [30]: 1.17%; viability, T/C [31]: 8.22%; viability, T/C [32]: 10.7%; viability, T/C [33]: 8.48%; viability, T/C [34]: 14.2%; viability, T/C [35]: 6.77%; viability, T/C [36]: 1.03%

From PubChem BioAssay AID1963984 (Molecular Pharmacology Branch, DTP, NCI, 2024)
